Source: patent publication US20140249139A1, “Quinazoline Derivatives” (NOVARTIS AG, priority 2011, published 2014)

Tests used:
PI3K alpha = target: T1, PI3K alpha (Homo sapiens, UniProt P42336); assay: Enzymatic PI3K alpha isoform inhibition (lipid kinase activity, Kinase-Glo); type: biochemical; conditions: enzymatic assay
T1 construct: for the p110-a subunit (with a deletion of the first 20 amino acids) are generated; His tag (C); made in house; host or cells: baculovirus BV1075; Tn5 (Trichoplusia ni) or TiniPro insect cells
T1 sequence (P42336 with tags, fused parts or gaps limits assumed, species assumed): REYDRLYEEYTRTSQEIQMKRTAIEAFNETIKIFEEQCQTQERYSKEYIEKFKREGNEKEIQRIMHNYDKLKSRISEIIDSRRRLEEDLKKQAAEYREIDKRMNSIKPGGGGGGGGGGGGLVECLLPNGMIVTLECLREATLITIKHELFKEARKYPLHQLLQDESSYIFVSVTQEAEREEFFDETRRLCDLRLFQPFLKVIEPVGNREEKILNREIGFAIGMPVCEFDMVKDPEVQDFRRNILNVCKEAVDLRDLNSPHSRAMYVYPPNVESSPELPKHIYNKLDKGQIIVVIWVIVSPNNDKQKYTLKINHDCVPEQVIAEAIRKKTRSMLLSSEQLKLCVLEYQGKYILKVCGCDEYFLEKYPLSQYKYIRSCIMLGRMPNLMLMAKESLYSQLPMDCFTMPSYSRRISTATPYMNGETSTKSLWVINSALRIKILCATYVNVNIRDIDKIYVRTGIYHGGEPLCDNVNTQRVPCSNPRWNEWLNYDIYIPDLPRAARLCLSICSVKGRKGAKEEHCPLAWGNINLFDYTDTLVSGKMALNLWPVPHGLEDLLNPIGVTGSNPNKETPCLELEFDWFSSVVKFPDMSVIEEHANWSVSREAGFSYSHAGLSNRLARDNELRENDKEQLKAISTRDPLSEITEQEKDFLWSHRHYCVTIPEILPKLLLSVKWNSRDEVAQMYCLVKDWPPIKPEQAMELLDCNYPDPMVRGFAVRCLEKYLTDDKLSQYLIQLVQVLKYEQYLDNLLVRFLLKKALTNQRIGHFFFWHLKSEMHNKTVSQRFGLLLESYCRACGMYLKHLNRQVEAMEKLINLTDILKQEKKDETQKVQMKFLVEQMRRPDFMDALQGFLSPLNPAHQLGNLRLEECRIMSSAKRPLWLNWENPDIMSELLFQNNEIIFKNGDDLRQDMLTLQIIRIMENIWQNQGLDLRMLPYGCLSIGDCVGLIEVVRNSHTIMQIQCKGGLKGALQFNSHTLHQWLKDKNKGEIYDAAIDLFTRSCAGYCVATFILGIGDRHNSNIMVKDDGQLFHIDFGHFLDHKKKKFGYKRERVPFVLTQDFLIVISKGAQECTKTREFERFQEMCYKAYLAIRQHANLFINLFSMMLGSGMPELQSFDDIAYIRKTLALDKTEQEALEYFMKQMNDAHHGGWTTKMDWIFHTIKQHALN
Method: (§1) The components of the assay are added per well as follows:
(§2) IC50 is determined by a four parameter curve fitting routine that comes along with “excel fit”.
(§3) Yet alternatively, for an ATP depletion assay, compounds of the formula I to be tested are dissolved in DMSO and directly distributed into a white 384-well plate at 0.5 μl per well. To start the reaction, 10 μl of 10 nM PI3 kinase and 5 μg/ml 1-alpha-phosphatidylinositol (PI) are added into each well followed by 10 μl of 2 μM ATP. The reaction is performed until approx 50% of the ATP is depleted, and then stopped by the addition of 20 μl of Kinase-Glo solution (Promega Corp., Madison, Wis., USA). The stopped reaction is incubated for 5 minutes and the remaining ATP is then detected via luminescence. IC50 values are then determined.

PI3K delta = target: T2, PI3K delta (Homo sapiens, UniProt O00329); assay: Enzymatic PI3K delta isoform inhibition (lipid kinase activity, Kinase-Glo); type: biochemical; conditions: enzymatic assay
T2 construct: for the full-length p110-d subunit are generated and fused by overlapping PCR; His tag (C); made in house; host or cells: baculovirus BV1060; Tn5 (Trichoplusia ni) or TiniPro insect cells
T2 sequence (O00329 with tags, fused parts or gaps limits assumed, species assumed): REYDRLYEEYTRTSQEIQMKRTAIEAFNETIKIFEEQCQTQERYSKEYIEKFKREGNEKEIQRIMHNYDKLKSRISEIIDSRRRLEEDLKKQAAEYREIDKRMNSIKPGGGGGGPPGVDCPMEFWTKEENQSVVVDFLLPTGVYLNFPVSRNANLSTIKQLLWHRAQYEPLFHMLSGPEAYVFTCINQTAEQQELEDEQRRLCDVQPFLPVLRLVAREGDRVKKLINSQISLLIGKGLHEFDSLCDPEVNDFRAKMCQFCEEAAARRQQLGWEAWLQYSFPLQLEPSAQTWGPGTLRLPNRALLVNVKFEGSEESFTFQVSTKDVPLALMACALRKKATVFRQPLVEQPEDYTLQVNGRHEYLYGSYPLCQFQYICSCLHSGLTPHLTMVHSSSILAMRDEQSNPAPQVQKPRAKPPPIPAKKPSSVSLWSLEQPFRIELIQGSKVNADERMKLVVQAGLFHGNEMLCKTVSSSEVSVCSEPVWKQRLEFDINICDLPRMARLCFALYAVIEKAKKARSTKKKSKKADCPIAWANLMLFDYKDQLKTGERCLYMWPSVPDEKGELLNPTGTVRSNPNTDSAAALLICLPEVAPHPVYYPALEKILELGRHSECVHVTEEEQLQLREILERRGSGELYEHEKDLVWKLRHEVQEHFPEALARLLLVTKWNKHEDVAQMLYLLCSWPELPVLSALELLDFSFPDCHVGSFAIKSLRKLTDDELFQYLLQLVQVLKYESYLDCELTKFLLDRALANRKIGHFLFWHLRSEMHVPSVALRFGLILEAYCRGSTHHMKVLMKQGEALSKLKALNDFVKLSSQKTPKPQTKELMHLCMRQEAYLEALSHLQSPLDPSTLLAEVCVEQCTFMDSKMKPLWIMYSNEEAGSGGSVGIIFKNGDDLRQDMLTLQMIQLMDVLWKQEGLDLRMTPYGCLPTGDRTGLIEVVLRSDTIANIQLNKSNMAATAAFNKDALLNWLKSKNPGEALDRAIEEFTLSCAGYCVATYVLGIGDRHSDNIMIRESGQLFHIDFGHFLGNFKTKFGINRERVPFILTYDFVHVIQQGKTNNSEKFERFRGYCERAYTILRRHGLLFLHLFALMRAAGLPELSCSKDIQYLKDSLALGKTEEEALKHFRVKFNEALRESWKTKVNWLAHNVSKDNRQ
Method: as §1, §2, §3

IC50 (PI3K alpha) [nM] | IC50 (PI3K delta) [nM] | Compound
62 | < 3 | COc1ncc(-c2ccc3ncnc(-c4cccc(C(=O)N5CCN(C(C)=O)CC5)c4)c3c2)cc1F [Example 3]
1160 | 9 | COc1ncc(-c2ccc3ncnc(-c4cccc(C(=O)N5CCN(C(C)=O)CC5)c4)c3c2)cn1 [Example 4]
1320 | 8.5 | CCOc1ncc(-c2ccc3ncnc(-c4cccc(C(=O)N5CCN(C(C)=O)CC5)c4)c3c2)cn1 [Example 5]
268 | 9.5 | CC(=O)N1CCN(C(=O)c2cccc(-c3ncnc4ccc(-c5cnc(N)nc5)cc34)c2)CC1 [Example 8]
> 9100 | 27 | CC(=O)N1CCN(C(=O)c2cccc(-c3ncnc4ccc(-c5cc(C#N)c(N)c(C(F)(F)F)c5)cc34)c2)CC1 [Example 10]
1070 | 28 | CN1CCN(C(=O)c2cccc(-c3ncnc4ccc(-c5cnc(N(C)C)nc5)cc34)c2)CC1 [Example 11]
1330 | 34 | CN1CCN(C(=O)c2cccc(-c3ncnc4ccc(-c5ccc(OC(F)F)nc5)cc34)c2)CC1 [Example 13]
1230 | 17 | CN1CCN(C(=O)c2cccc(-c3ncnc4ccc(-c5ccc(N6CCCC6)nc5)cc34)c2)CC1 [Example 15]
695 | 12.5 | CCOc1ccc(-c2ccc3ncnc(-c4cccc(C(=O)N5CCN(C)CC5)c4)c3c2)cn1 [Example 16]
352 | 6.38 | CN1CCN(C(=O)c2cccc(-c3ncnc4ccc(-c5ccc(N(C)C)nc5)cc34)c2)CC1 [Example 17]
1290 | 42.1 | CN1CCN(C(=O)c2cccc(-c3ncnc4ccc(-c5ccc(N6CCNCC6)nc5)cc34)c2)CC1 [Example 18]
2480 | 24 | COc1ccc(-c2ccc3ncnc(-c4cccc(C(=O)N5CCN(C)CC5)c4)c3c2)cc1C(F)(F)F [Example 20]
2270 | 14.5 | COc1ccc(-c2ccc3ncnc(-c4cccc(C(=O)N5CCN(C)CC5)c4)c3c2)cc1S(=O)(=O)N1CCOCC1 [Example 21]
931 | 12.5 | CCN(CC)S(=O)(=O)c1cc(-c2ccc3ncnc(-c4cccc(C(=O)N5CCN(C)CC5)c4)c3c2)ccc1OC [Example 23]
400 | 15 | CN1CCN(C(=O)c2cccc(-c3ncnc4ccc(-c5cncc(S(C)(=O)=O)c5)cc34)c2)CC1 [Example 24]
184 | 7 | CN1CCN(C(=O)c2cccc(-c3ncnc4ccc(-c5ccc(N)nc5)cc34)c2)CC1 [Example 25]
614 | 17.8 | COc1ncc(-c2ccc3ncnc(-c4cccc(C(=O)N5CCN(C)C(C)(C)C5)c4)c3c2)cn1 [Example 26]
404 | 18.5 | CCOc1ccc(-c2ccc3ncnc(-c4cccc(C(=O)N5CCN(C)C(C)(C)C5)c4)c3c2)cn1 [Example 27]
418 | 9 | COc1ncc(-c2ccc3ncnc(-c4cccc(C(=O)N5CCS(=O)(=O)CC5)c4)c3c2)cc1C#N [Example 28]
75 | 3 | COc1ncc(-c2ccc3ncnc(-c4cccc(C(=O)N5C[C@@H]6C[C@H]5CN6C)c4)c3c2)cc1C(F)(F)F [Example 29]
387 | 6.67 | COc1ncc(-c2ccc3ncnc(-c4cccc(C(=O)N5CCOCC5)c4)c3c2)cc1C#N [Example 30]
631 | 6 | COc1ncc(-c2ccc3ncnc(-c4cccc(C(=O)N5CCOC(C)(C)C5)c4)c3c2)cc1C#N [Example 31]
174 | 7 | CC1(C)CN(C(=O)c2cccc(-c3ncnc4ccc(-c5ccc(N)nc5)cc34)c2)CCO1 [Example 32]
639 | 12 | COc1ncc(-c2ccc3ncnc(-c4cccc(C(=O)N5CCOC(C)(C)C5)c4)c3c2)cn1 [Example 33]
488 | 22.5 | COc1ncc(-c2ccc3ncnc(-c4cccc(C(=O)N5CCN[C@H](C)C5)c4)c3c2)cc1C#N [Example 34, 2-Methoxy-5-{4-[3-((R)-3-methyl-piperazine-1-carbonyl)-phenyl]-quinazolin-6-yl}-nicotinonitrile]

IC50 (PI3K alpha) [nM] | IC50 (PI3K delta) [nM] | Compound
262 | 7 | COc1ncc(-c2ccc3ncnc(-c4cccc(C(=O)N5CCNCC5)c4)c3c2)cc1C#N [Example 35]
217 | 4.5 | COc1ccc(-c2ccc3ncnc(-c4cccc(C(=O)N5CCN(C(C)=O)C(C)(C)C5)c4)c3c2)cn1 [Example 36, 1-(4-{3-[6-(6-Methoxy-pyridin-3-yl)-quinazolin-4-yl]-benzoyl}-2,2-dimethyl-piperazin-1-yl)-ethanone]
426 | 4 | COc1ncc(-c2ccc3ncnc(-c4cccc(C(=O)N5CCN(C(C)=O)C(C)(C)C5)c4)c3c2)cc1C#N [Example 37]
372 | 7 | COc1ccc(-c2ccc3ncnc(-c4cccc(C(=O)N5CC6CC5CN6)c4)c3c2)cn1 (stereo not shown) [Example 38, (2,5-Diaza-bicyclo[2.2.1]hept-2-yl)-{3-[6-(6-methoxy-pyridin-3-yl)-quinazolin-4-yl]-phenyl}-methanone]
770 | 11.5 | COc1ccc(-c2ccc3ncnc(-c4cccc(C(=O)N5C[C@@H]6C[C@H]5CN6)c4)c3c2)cc1C(F)(F)F [Example 39]
270 | 3 | CNc1ncc(-c2ccc3ncnc(-c4cccc(C(=O)N5CCN(C)CC5)c4)c3c2)cc1C [Example 40, {3-[6-(5-Methyl-6-methylamino-pyridin-3-yl)-quinazolin-4-yl]-phenyl}-(4-methyl-piperazin-1-yl)-methanone]
708 | 20.5 | CNc1ccc(-c2ccc3ncnc(-c4cccc(C(=O)N5CCN(C)CC5)c4)c3c2)cn1 [Example 41]
152 | 6 | CCOc1ncc(-c2ccc3ncnc(-c4cccc(C(=O)N5CCN(C)CC5)c4)c3c2)cc1C(F)(F)F [Example 42, {3-[6-(6-Ethoxy-5-trifluoromethyl-pyridin-3-yl)-quinazolin-4-yl]-phenyl}-(4-methyl-piperazin-1-yl)-methanone]
374 | 11 | Cc1ccc(-c2ccc3ncnc(-c4cccc(C(=O)N5CCN(C)CC5)c4)c3c2)cc1S(C)(=O)=O [Example 43]
1200 | 36.5 | COc1ccc(-c2ccc3ncnc(-c4cccc(C(=O)N5CCN(C)CC5)c4)c3c2)cc1C#N [Example 45]
5300 | 23.5 | CN1CCN(C(=O)c2cccc(-c3ncnc4ccc(-c5ccc(S(N)(=O)=O)c(C(F)(F)F)c5)cc34)c2)CC1 [Example 46]
> 9100 | 27 | CN1CCN(C(=O)c2cccc(-c3ncnc4ccc(-c5cc(NS(C)(=O)=O)cc(C(F)(F)F)c5)cc34)c2)CC1 [Example 47]
3800 | 47.5 | CN1CCN(C(=O)c2cccc(-c3ncnc4ccc(-c5ccc(NS(C)(=O)=O)c(C(F)(F)F)c5)cc34)c2)CC1 [Example 48]
8950 | 35.5 | COc1ccc(-c2ccc3ncnc(-c4cccc(C(=O)N5CCN(C)CC5)c4)c3c2)cc1C(=O)N(C)C [Example 49, 2-Methoxy-N,N-dimethyl-5-{4-[3-(4-methyl-piperazine-1-carbonyl)-phenyl]-quinazolin-6-yl}-benzamide]
319 | 10.5 | CC(=O)N1CCN(C(=O)c2cncc(-c3ncnc4ccc(-c5cncc(C(F)(F)F)c5)cc34)c2)CC1 [Example 50, 1-(4-{5-[6-(5-Trifluoromethyl-pyridin-3-yl)-quinazolin-4-yl]-pyridine-3-carbonyl}-piperazin-1-yl)-ethanone]
118 | 3.5 | COc1ncc(-c2ccc3ncnc(-c4cncc(C(=O)N5CCN(C(C)=O)CC5)c4)c3c2)cc1F [Example 51]
189 | 7.5 | COc1ccc(-c2ccc3ncnc(-c4cncc(C(=O)N5CCN(C(C)=O)CC5)c4)c3c2)cn1 [Example 52]
472 | 7 | COc1ncc(-c2ccc3ncnc(-c4cncc(C(=O)N5CCN(C(C)=O)CC5)c4)c3c2)cc1C#N [Example 53]
69 | 3 | COc1ncc(-c2ccc3ncnc(-c4cncc(C(=O)N5CCN(C(C)=O)CC5)c4)c3c2)cc1C(F)(F)F [Example 54]
193 | 9.25 | COc1ncc(-c2ccc3ncnc(-c4cncc(C(=O)N5CCN(C)CC5)c4)c3c2)cc1F [Example 55]
542 | 11 | COc1ncc(-c2ccc3ncnc(-c4cncc(C(=O)N5CCN(C)CC5)c4)c3c2)cc1C#N [Example 56]
646 | 5.5 | COc1ccc(-c2ccc3ncnc(-c4cncc(C(=O)N5CCN(C)CC5)c4)c3c2)cc1C(F)(F)F [Example 58]
1710 | 31.5 | COc1ncc(-c2ccc3ncnc(-c4cncc(C(=O)N5CCN(C)CC5)c4)c3c2)cn1 [Example 59]
657 | 19.5 | CN1CCN(C(=O)c2cncc(-c3ncnc4ccc(-c5cnc(N)nc5)cc34)c2)CC1 [Example 60]
390 | 3 | COc1ncc(-c2ccc3ncnc(-c4cncc(C(=O)N5CCOC(C)(C)C5)c4)c3c2)cc1C(F)(F)F [Example 61]
